{"source": "patent US20230226079A1", "about": "“METHODS AND COMPOSITIONS FOR TREATMENT OF SOLID TUMORS” (Saint Louis University, priority 2022, published 2023)", "key": {"[1]": {"system": "4T1 (mouse) cells implanted into the mammary fat pad", "test": "Orthotopic syngeneic breast cancer mouse model (4T1)", "format": "in vivo, Balb/c mice", "settings": "M-I 30 mg/mouse/day ip; pilot study", "description": "FIG. 12 illustrates 4T1 cells tumor bearing mice were randomly divided into two groups mice (n=4). Starting day of treatment by M-I (red color) or vehicle (control-blue color) graph was marked by up arrow.\nThe Inventors further evaluated the efficacy of M-I in orthotopic breast cancer mouse models in a pilot study. Syngeneic breast cancer model using 4T1 (mouse) cells implanted into the mammary fat pad of Balb/c mice. Mice were divided into two groups. One group received M-I (30 mg/mouse/day) and the other group received vehicle as a control by ip."}, "NK3.3 cells": {"system": "NK3.3 cells", "test": "NK-cell viability", "format": "cell-based", "description": "FIG. 9 illustrates NK3.3 cells treated with bitter melon extract or M-I and cell viability was measured at 48h or 72h after treatment. Results shown are an average of three independent experiments. Small bar indicates standard error. (* p <0.05)\n(§1) NK cells are implicated in drug induced resistant cancer cells to drive tumor growth (Smalley et al., 2020). […] Bitter melon extract was used as a control. Control or M-I treated NK3.3 cells were also cocultured with MDA-MB-231 cells at 1:5 (Target:Effector) ratio for 24 h and stained for viable/dead cells. […] The apoptotic markers were further examined by Western blot analysis."}, "Ca127 xenograft": {"system": "Ca127 xenograft", "test": "Tumorigenicity assay, Ca127 xenograft model", "format": "in vivo, nude mice", "settings": "M-I 30 mg/kg IP once a day, BME 30% in drinking water", "description": "JHU029 or Ca127 cells (1.5 10^6) containing 40% Matrigel were injected subcutaneously into the flank of BALB/c athymic nude mice (7-8 weeks old). When the palpable tumor was developed (>60 mm3), mice were divided into three groups randomly, 5 mice in each group. The control group was without any treatment. The BME group received 30% (v/v) BME through drinking water. M-I group received 30 mg/kg dose of M-I once in day, every day. Body weight was monitored, and tumor size was measured using a slide caliper and volume was calculated using the formula 1/2 L X W2. After animal sacrifice tumors were dissected out and snap frozen in liquid nitrogen for further analysis. All the animal experiments were carried out in accordance NIH guidelines, following a protocol approved (1017) by the Institutional Animal Care and Use Committee (IACUC) of Saint Louis University."}, "[2]": {"system": "HNC (JHU022, JHU029, Ca127) cell lines", "format": "cell-based", "description": "(§2) Ca127, JHU029, JHU022 and NOK were seeded in 96 well-plate (5000 cells/well) and cells were treated with different concentration of M-I for 48 h. There were untreated control and DMSO treated vehicle control group for comparison. Cytotoxicity assay was performed using Cell Counting Kit-8 (Dojindo Molecular Technology, Rockville, Md., USA) according to manufacturer instruction.\nDue to their limited reported biology, the Inventors have selected a few triterpenoids and triterpene glycosides, based on their availability, for preliminary in vitro screening against HNC (JHU022, JHU029, Ca127) cell lines. The Inventors identified momordicine-I (M-I) as one of the chemical constituents at the retention time of 21.06 min in the BME (FIG. 1A). The M-I [C30H4804, PubChem CID: 14807332; IUPAC Name: (3S, 7S, 8S, 9R, 10R, 13R, 14S, 17R) 3,7-dihydroxy-17-(4-hydroxy-6-methylhept-5-en-2-yl)-4,4,13,14-tetramethyl-2,3,7,8,10,11, 12,15, 16,17-decahydro-1H-cyclopenta[a]phenanthrene-9-carbaldehyde] is a white crystalline solid that belongs to the cucurbitane-type triterpene class (FIG. 1B). […] Other compounds, mom ordicoside K (MK), and karavilagenin D (KD), were also examined on HNC cell cytotoxicity assay. These, two other compounds required much higher amounts (>50 ug/mL) even for -40% cell death."}, "[3]": {"system": "normal oral keratinocytes (NOK)", "test": "Cytotoxicity assay in normal oral keratinocytes", "format": "cell-based, human", "settings": "48 h", "excerpt": "Normal oral keratinocytes (NOK) (kindly gifted by Dr. Karl Mugner, Tuffs University, Boston, MA, USA) were maintained in Keratinocyte SFM medium supplemented with EGF and bovine pituitary extract (GIBCO, Life Technologies, Berkeley, MO, USA) and 1% penicillin/ streptomycin. HNC cell line Ca127 was purchased from the ATCC. JHU029 (JHU-29) and JHU022 (JHU-22) cell lines were procured from the Johns Hopkins University (Baltimore, MD, USA). The Ca127 and JHU022 cells were maintained in Dulbecco's Modified Eagle Medium (DMEM), and JHU029 cells were in RPMI1640 (Sigma, St. Louis, Mo., USA) media supplemented with 10% FBS and 1% penicillin/ streptomycin (Sigma-Aldrich, St. Louis, Mo., USA) in a humidified CO2 incubator. The cell lines are routinely tested in the Inventors' laboratory to rule out mycoplasma contamination using a commercial Mycoplasma Detection kit (MycoAlert™, Lonza, Morrisville, N.C., USA). Ca127 cells are tongue origin and JHU022 and JHU029 cells are from larynx origin.\nas §2"}, "4T1 cells": {"system": "4T1 cells", "test": "Cell viability of 4T1 cells", "format": "cell-based", "settings": "Mus musculus, 72h", "description": "(§3) FIG. 8 illustrates 4T1 and MDA-MB-231 cells treated with M-I at indicated doses for 72h. The viability of control cells was arbitrarily set to 100%. Results shown are an average of three independent experiments. Data are represented as mean±SD.\n(§4) The Inventors tested human MDA-MB-231 and mouse 4T1 cells in dose dependent manner (FIG. 8). […] The Inventors also tested other compounds in TNBC cell cytotoxicity assays, but these required much higher amounts (>[…]) even for ˜40% cell death."}, "MDA-MB-231 cells [4]": {"system": "MDA-MB-231 cells", "test": "Cell viability of MDA-MB-231 cells", "format": "cell-based", "settings": "Homo sapiens, 72h", "description": "as §3, §4"}, "MDA-MB-231 cells [5]": {"system": "MDA-MB-231 cells", "format": "cell-based", "excerpt": "FIG. 10A illustrates Treated or untreated cells were stained with Calcein AM (green color indicates live cells) and ethidium homodimer-1 (red color inndicates dead cells-shown by white arrows) to quantitate the live and dead cells by fluorescence microscopy with corresponding bright field images. Magnification 10X. Arrows indicate dead cells. FIG. 10B illustrates Quantitation of relative dead cells, calculated from five random fields. Small bar indicates standard error ***p<0.001).\nFIG. 11 illustrates M-I activates NK cells for killing activity. MDA-MB-231 cells were co-cultured with NK cells activated by IL2, BME or M-I. After 24 hr cell lysates were prepared and subjected to Western blot analysis using specific antibodies. Left panel: Representative western blot images for cleaved PARP, expression of cleaved Caspase 9 and 3 are shown. Membrane was reprobed with antibody for Actin as an internal control.\nas §1"}, "[6]": {"system": "c-Myc, survivin and cyclin D1", "test": "Western blot for STAT3 downstream molecules in HNC cells", "format": "cell-based", "settings": "Ca127 and JHU029 cells", "quoted_text": "The powder was dissolved in DMSO and added to the cells at different concentrations. Based on cytotoxicity data, Ca127 and JHU029 cells were treated with 10 ug/mL and JHU022 cells were treated with 20 ug/mL dose of M-I and incubated for 48 hr for further experiments. All the experiments were done at least in triplicate.\nHRP conjugated anti-mouse or anti-rabbit secondary antibodies were purchased from Bio-Rad (Hercules, Calif., USA). The blot was reprobed with HRP conjugated -actin antibody (1:5000; SBT) to compare protein load in each lane. Densitometry analysis was done using Image J software (NIH, Bethesda, Md., USA)."}, "[7]": {"system": "normal mammary epithelial cells", "test": "Cytotoxicity in normal mammary epithelial cells", "format": "cell-based, human"}}, "data": [{"smiles": "CC(C)=CC(O)CC(C)[C@H]1CC[C@@]2(C)[C@@H]3[C@@H](O)C=C4[C@@H](CC[C@H](O)C4(C)C)[C@]3(C=O)CC[C@]12C", "note": "(stereo partly drawn) [M-I, (3S, 7S, 8S, 9R, 10R, 13R, 14S, 17R) 3,7-dihydroxy-17-(4-hydroxy-6-methylhept-5-en-2-yl)-4,4,13,14-tetramethyl-2,3,7,8,10,11, 12,15, 16,17-decahydro-1H-cyclopenta[a]phenanthrene-9-carbaldehyde]", "values": [{"measurement": "tumor volumes versus vehicle control", "setting": "[1]", "result": "significantly reduced"}, {"measurement": "NK-cell viability", "setting": "NK3.3 cells", "result": "no cytotoxic effect"}, {"measurement": "reduction of tumor growth", "setting": "Ca127 xenograft", "result": "−50", "unit": "%"}, {"measurement": "body weight", "setting": "Ca127 xenograft; throughout the experiment", "result": "increasing body weight"}, {"measurement": "inhibition of HNC cells in cytotoxicity assay", "setting": "[2]", "result": "inhibited HNS cells in a dose-dependent manner"}, {"measurement": "effect on human normal oral keratinocytes (NOK)", "setting": "[3]", "result": "minimum effect"}, {"measurement": "IC50", "setting": "4T1 cells", "result": 5, "unit": "µg/mL"}, {"measurement": "IC50", "setting": "MDA-MB-231 cells [4]", "result": 12, "unit": "µg/mL"}, {"measurement": "cytotoxicity of treated NK3.3 cells against MDA-MB-231 cells", "setting": "MDA-MB-231 cells [5]", "result": "enhanced cytotoxicity"}, {"measurement": "caspase 9/3 and PARP cleavage in breast cancer cells", "setting": "MDA-MB-231 cells [5]; M-I treated NK cells co-cultured with MDA-MB-231 cells, 24 hr, Western blot", "result": "activate caspase 9/3 and PARP cleavage"}, {"measurement": "STAT3 downstream molecules c-Myc, survivin and cyclin D1", "setting": "[6]", "result": "significant inhibition"}, {"measurement": "effect on human normal mammary epithelial cells", "setting": "[7]", "result": "minimum effect"}]}]}
